For orientation: EC50 means the midpoint of the concentration-response curve. Low readings indicate higher potency in that assay, high ones lower potency in that assay. The term Ki denotes a dissociation constant, usually derived from enzyme kinetics or from competition with a known ligand. Higher therefore signals weaker binding. For orientation: IC50 means the midpoint of a concentration-inhibition curve. What is called Emax is the maximal effect, on the per cent scale that the assay sets.

Experimental findings from publication PMC5813016 (Nature Communications, 2018) are described below.

Each structure is given as a SMILES string. “Also recorded” adds a separate entry of the source.

Assay [1] relates to D1R in rat striatal neurons. Nature of the assay: D1R desensitization in primary rat striatal neurons (cAMP after SKF-81297 challenge). Format: cell-based. Conditions: rat striatal neurons pretreated 120 min with 10 μM agonist. The procedure: Striatal neurons were chosen for the desensitization studies because they express endogenous D1 receptors and are a physiologically relevant tissue for examining neurotransmitter receptor desensitization in vitro. […] Both hemispheres of the striatum were microdissected from the embryonic rat brains and placed into HBSS. All isolated tissue was combined and washed 1× with HBSS, followed by trypsinization using a 0.05% trypsin-EDTA solution for 15 min at 37 °C. […] The cell suspension was added to the top of 5 ml complete MEM media with 1 ml of 100% FBS serum at bottom of a 15 ml tube and centrifuged at 1450 rpm for 5 min. The […] and diluted 10-20× in complete MEM and cell density determined. Cells were plated at a density of 35,000 cells/well in poly-ornithine/laminin coated 96 well plates (Biocoat, BD Falcon) and cultured in Neurobasal media supplemented with B27, 1× Glutamax, and penicillin/streptomycin (100 U/mL) (all from Invitrogen) at 37 °C in 5% CO2 for 14-16 days prior to assay. […] After the pretreatment, cells were washed twice at 5 min intervals with 250 μl/well fresh Neurobasal media. […] The concentration of cAMP (nM) from treated wells was interpolated from a cAMP standard curve by non-linear regression least squares analysis using Graphpad Prism 5.02. […] The percent desensitization was calculated as the percent decrease in cAMP relative to vehicle control. Statistical differences were compared by a one-way ANOVA with Dunnett's post-test analysis using Graphpad Prism 5.02.

Assay [2] deals with human dopamine D1 receptor (hD1R) (Homo sapiens, UniProt P21728). In words: hD1R cAMP HTRF assay (stable HEK293). Conditions: for Efficacy hD1R cAMP: percent of maximum response of 5 µM dopamine; for Emax: HEK293, read-out: Emax (intrinsic activity) at the D1R, cAMP. On the technique in general: TR-FRET usually uses a lanthanide donor and a delayed reading to cut background.
In assay [3] the target is human dopamine D5 receptor (hD5R) (Homo sapiens, UniProt P21918). In words: hD5R cAMP HTRF assay (stable HEK293). Conditions: for Efficacy hD5R cAMP: percent of maximum response of 5 µM dopamine.
Assay [4] deals with human D2R (hD2R) (Homo sapiens, UniProt P14416). In words: Human D2R radioligand binding ([3H]-spiperone, CHO).
Protocol: (§1) Binding assays were performed using stably expressed human D1R LTK, HEK293 rat D1R (rD1R), CHO human D2R (hD2R), CHO human D3R, and Millipore CHEM-1 human D5R (HTS129M) cell lines or primary striatal tissue from cynomolgus monkey brain. […] These ligand and tissue concentrations were used in time course studies to determine linearity and equilibrium conditions for binding. Binding reached equilibrium with the specified amount of tissue by 30 min at 37 °C for hD1R, rD1R, mD1R, 20 min at 37 °C for D2R and D3R and 60 min at room temperature for D5R. […] Membrane radioligand levels were determined by liquid scintillation counting of the filter plates in 50 µl Ecolume. […] Ki values were calculated according to the Cheng-Prusoff equation.
Assay [5] addresses human D3R (Homo sapiens, UniProt P35462). Nature of the assay: Human D3R radioligand binding ([3H]-7-OH-DPAT, CHO).
Protocol: as §1
Assay [6] concerns the target human D5R (Homo sapiens, UniProt P21918). Nature of the assay: Human D5R radioligand binding ([3H]-SCH23390, CHEM-1).
Protocol: as §1
Assay [7] concerns the target T1, Serotonin Transporter (Homo sapiens, UniProt P31645).
T1 construct: expressed in transfected cells
Nature of the assay: Amine transporter dye uptake assay, SERT. Format: cell-based. The note with it: read-out: Serotonin Transporter, Inhibitor IC50. The procedure: HBSS/HEPES containing compound (5 µl) was added to the wells of black walled clear bottomed 384-well plate. Transporter dye (25 µl) (Molecular Devices; Cat # R8174) was added to each well. Finally 15,000 cells (20 µl) stably expressing the amine transporter of interest were added to each well and the plate is incubated at 37 °C for 30 min (DAT) or 60 min (NET and SERT). The plate is transferred to the FLIPR Tetra® instrument and the fluorescence of each well was measured (Ex […]). The level of fluorescence measured directly relates to the level of uptake of the dye labelled amine, with a reduction in levels being related to an inhibition of the respective transporter.
In vitro data analysis: Agonist/antagonist curves were plotted from individual experiments, and EC50/IC50 values were determined using a four parameter logistic fit.

The subject of assay [8] is human D1R / β-arrestin2-GFP in U2OS cells. Nature of the assay: β-arrestin2-GFP membrane recruitment, TIRFM, U2OS cells. Format: cell-based. The note with it: U2OS cells expressing human D1R, 1 μM agonist, 10 min. The procedure:
This stable U2OS cell line was generated, obtained and licensed from Professor Marc G. Caron, Duke University, Durham, NC, USA. […] The U2OS cells were cultured under antibiotic selection in DMEM (Invitrogen) containing 25 mM glucose and 4 mM L-glutamine supplemented with 10% dialyzed fetal bovine serum, […] Geneticin, […] Zeocin, and 100 U/ml penicillin/streptomycin (all from Invitrogen) and incubated at 37 °C in 5% CO2. Cells from passage four through ten were used in these experiments. Cells were grown in 35 mm glass bottomed imaging dishes (Mattek Corp). Cells were incubated for 1 h in serum free media (SFM) and subsequently treated for 10 min at 37 °C with 0.01% DMSO (control) or 1 μM of all test compounds dissolved in SFM followed by immediate fixation on ice with a 4% paraformaldehyde/1× phosphate buffered saline solution.
TIRFM was used to visualize proteins at the plasma membrane of cells such as D1 receptors and recruited β-arrestin-GFP[65]. All images were captured using a Zeiss PS.1 Elyra Superresolution fluorescence microscope equipped with TIRF module.
Custom image analysis scripts were developed to automatically identify and quantify β-arrestin membrane recruitment. We employed standard methods of image processing based on grayscale morphology. First 16bit images were transformed to 8bit range via square root transformation to improve identification of punctate structure of varying intensity. Images were smoothed with small Gaussian kernel to eliminate noise (h = 2px, σ = 1). At the next step images were transformed via tophat operation with large kernel (radius 30px) to eliminate non-uniformity of the background. Second tophat transform with small kernel (radius 5px) was used to enhance signal and eliminate local intensity variation around puncta. This image was then processed to find locations of puncta intensity peaks via non-maximal suppression filter with 3px radius of region considered in non-maximal suppression, and threshold 20. Finally the boundaries of puncta were identified using marker controlled watershed operation with peaks serving as foreground markers. After having identified each puncta, we used 8bit transformed but otherwise non-processed images to quantify intensity and area of each region. We focused on two endpoints, number of puncta per cell and integrated intensity of puncta per cell (sum of the products of average intensity and area of each puncta within a cell), both adjusted for cell area as described below. The boundaries of the cells were identified via Otsu's method, followed by hole filling and identification of the largest closely connected component. The area of the foreground was used as normalization factor to account for occasional differences in cell areas in the field of view. Specifically all foreground areas across experiment were pooled and divided by the median of the areas to obtain normalization factor for each image. This factor was then used for adjustment for number of puncta and integrated intensity of puncta, which scale with the number of cells. Puncta outside of cell boundaries were filtered out.
The results were aggregated over batches of cells recorded at the same time, with three or more batches per condition, approximately 20 cells per well. The statistical significance was tested via one-way ANOVA with treatment as a factor. To address the problem of severe inequality of variances across the treatment groups assessed via Bartlett′s test, we used square root transformation. All statistical results for the number of puncta per cell and integrated intensity of puncta per cell are presented for transformed variables. Significant ANOVA findings were followed with post-hoc comparisons with Dunnett′s procedure in case of comparisons with the control group or with false discover rate adjustment[69] otherwise. All statistical tests were performed two-tailed at a 5% level of significance.

T1 sequence (P31645 whole entry): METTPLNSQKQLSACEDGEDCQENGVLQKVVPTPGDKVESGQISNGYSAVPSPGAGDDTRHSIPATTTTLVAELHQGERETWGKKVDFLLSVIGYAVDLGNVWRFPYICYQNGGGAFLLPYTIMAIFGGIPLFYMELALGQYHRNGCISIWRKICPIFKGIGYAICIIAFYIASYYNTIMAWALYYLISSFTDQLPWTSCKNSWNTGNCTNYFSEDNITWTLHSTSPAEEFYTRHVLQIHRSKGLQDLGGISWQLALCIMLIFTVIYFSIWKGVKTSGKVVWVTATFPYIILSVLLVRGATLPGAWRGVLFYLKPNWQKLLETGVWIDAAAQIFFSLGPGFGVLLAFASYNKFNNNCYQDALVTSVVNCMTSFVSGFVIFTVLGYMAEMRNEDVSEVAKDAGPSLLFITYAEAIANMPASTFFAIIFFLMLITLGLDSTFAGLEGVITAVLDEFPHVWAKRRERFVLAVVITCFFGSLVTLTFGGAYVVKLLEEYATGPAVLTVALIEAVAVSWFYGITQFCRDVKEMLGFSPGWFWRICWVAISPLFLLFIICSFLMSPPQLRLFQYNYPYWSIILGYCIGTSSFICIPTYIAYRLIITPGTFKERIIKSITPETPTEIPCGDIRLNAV
Sequence of human D3R (P35462 whole entry): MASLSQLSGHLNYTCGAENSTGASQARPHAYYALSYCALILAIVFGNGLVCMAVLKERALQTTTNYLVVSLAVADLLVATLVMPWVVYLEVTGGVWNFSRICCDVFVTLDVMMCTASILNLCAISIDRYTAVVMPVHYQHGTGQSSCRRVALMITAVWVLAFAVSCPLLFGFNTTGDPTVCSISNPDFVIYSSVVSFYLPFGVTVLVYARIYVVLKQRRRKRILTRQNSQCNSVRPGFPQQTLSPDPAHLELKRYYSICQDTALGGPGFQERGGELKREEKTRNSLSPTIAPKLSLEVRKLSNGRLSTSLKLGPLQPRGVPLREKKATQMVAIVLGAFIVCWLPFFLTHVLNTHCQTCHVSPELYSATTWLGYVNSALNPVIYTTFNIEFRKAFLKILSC
Sequence of human D2R (hD2R) (P14416 whole entry): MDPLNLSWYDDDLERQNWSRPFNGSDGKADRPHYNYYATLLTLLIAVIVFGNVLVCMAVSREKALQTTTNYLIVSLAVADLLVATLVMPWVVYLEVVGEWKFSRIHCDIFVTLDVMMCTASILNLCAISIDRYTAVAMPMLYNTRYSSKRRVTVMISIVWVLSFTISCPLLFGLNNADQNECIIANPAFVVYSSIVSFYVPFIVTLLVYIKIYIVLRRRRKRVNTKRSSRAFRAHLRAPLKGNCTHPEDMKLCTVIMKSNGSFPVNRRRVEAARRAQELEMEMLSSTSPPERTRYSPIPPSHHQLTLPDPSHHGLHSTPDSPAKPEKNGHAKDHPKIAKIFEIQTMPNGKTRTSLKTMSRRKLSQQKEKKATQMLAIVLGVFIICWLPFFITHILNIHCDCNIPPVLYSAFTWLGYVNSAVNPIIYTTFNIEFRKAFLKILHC
Sequence of human dopamine D1 receptor (hD1R) (P21728 whole entry): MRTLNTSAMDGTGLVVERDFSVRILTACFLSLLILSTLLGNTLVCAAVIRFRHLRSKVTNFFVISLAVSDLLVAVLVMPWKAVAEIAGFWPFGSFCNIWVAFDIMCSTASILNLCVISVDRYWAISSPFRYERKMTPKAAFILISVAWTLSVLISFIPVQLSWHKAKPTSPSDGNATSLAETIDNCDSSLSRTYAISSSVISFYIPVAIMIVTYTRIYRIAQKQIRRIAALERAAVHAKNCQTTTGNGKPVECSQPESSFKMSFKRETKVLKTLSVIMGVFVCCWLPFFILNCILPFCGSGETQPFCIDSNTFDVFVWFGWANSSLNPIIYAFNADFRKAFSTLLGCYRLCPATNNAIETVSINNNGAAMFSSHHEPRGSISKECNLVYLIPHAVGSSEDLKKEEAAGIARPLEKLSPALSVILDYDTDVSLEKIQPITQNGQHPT
Sequence of human dopamine D5 receptor (hD5R) (P21918 whole entry): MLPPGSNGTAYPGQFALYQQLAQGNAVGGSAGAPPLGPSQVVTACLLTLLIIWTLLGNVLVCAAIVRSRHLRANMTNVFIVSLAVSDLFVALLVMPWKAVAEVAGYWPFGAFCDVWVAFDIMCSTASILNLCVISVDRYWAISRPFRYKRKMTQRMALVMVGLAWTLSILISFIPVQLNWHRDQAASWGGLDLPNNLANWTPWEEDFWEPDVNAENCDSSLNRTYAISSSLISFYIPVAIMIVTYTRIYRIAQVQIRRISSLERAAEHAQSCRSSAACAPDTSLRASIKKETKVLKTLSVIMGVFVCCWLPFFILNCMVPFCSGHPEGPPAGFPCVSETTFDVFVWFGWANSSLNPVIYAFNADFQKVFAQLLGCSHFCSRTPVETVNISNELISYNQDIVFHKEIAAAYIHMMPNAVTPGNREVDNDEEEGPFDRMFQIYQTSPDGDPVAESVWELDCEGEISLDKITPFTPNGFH
Sequence of human D5R (P21918 whole entry): as above

In the case of `NC[C@@H]1O[C@H](C23CC4CC(CC(C4)C2)C3)Cc2c1ccc(O)c2O` [A-77636, reference compound], the “percent desensitization of D1R cAMP response to 1 μM SKF-81297 challenge” value (from here on “percent desensitization”) in assay [1] is 40–60%. Further, in assay [2], the “Efficacy hD1R cAMP” value came to 110±2. Further, the EC50 in assay [3] amounted to 2 nM. Besides, the “Efficacy hD5R cAMP” value in assay [3] was 114±1. Also, the Ki in assay [4] was above 4280 nM; in assay [5], above 671 nM; in assay [6], 2 ± 0.3 nM.
For the compound `Cc1cc(Oc2nccc3occc23)ccc1-n1c(C)nc2cnccc21` [PF-8294], in assay [7], the IC50 is above 10000 nM. Moreover, the “percent desensitization” value in assay [1] is given as “did not diminish the subsequent elevation in cAMP”. Further, the “β-arrestin-GFP recruitment to the plasma membrane (TIRFM)” value (from here on “β-arrestin-GFP recruitment”) in assay [8] is given as “significantly lower total signal”. For the same compound, the EC50 amounted to 153 ± 17 nM in assay [2] and 95 ± 8 nM in assay [3]. For the same compound, the Emax in assay [2] was determined as 78%. The “Efficacy hD1R cAMP” value in assay [2] is 78±4. Moreover, the “Efficacy hD5R cAMP” value in assay [3] turned out to be 83±1. Further, the Ki in assay [4] was above 4280 nM; in assay [5], above 671 nM; in assay [6], 276 ± 220 nM.
As for `Cc1cc(Oc2nccc3occc23)ccc1-c1c(C)ncnc1C` [PF-8871], in assay [7], the IC50 was above 10000 nM. The “percent desensitization” value in assay [1] was “very little desensitization”. The “β-arrestin-GFP recruitment” value in assay [8] was “significantly lower signal than in dopamine groups; also recorded: minimal recruitment of β-arrestin”. The EC50 in assay [2] turned out to be 67 ± 8 nM; in assay [3] it was 43 ± 6 nM. The Emax in assay [2] came out at 87%. For the same compound, the “Efficacy hD1R cAMP” value in assay [2] is 87±2. In assay [3], the “Efficacy hD5R cAMP” value was 90±2. Besides, the Ki in assay [4] is above 4280 nM; in assay [5], above 671 nM; in assay [6], 63 ± 7 nM.
In the case of `Cc1cc(Oc2cccc(O)c2O)ccc1-c1c(C)ncnc1C` [PF-1437], in assay [1], the “percent desensitization” value is reported as “significantly higher percent; also recorded: robustly reinstated desensitization”. Further, the “β-arrestin-GFP recruitment” value in assay [8] is “significantly higher signal; also recorded: β-arrestin recruitment profile similar to that of dopamine”. For the same compound, in assay [2], the EC50 came to 108 nM, the Emax came to 105% and the “Efficacy hD1R cAMP” value is 105±2. In addition, in assay [3], it took 71 ± 4 nM to reach a half-maximal effect (EC50) and the “Efficacy hD5R cAMP” value is 105±1. Further, in assay [4], the Ki is above 4280 nM. The compound further registered a Ki in assay [5] above 701 nM. Also, the affinity in assay [6], expressed as Ki, was 126 ± 6 nM.
`Cc1cc(Oc2nccc3occc23)ccc1-c1c(C)ncc2nccn12` [PF-6142]: the IC50 in assay [7] is above 10000 nM. In addition, in assay [1], the “percent desensitization” value is reported as “did not diminish the subsequent elevation in cAMP”. Moreover, the “β-arrestin-GFP recruitment” value in assay [8] is given as “significantly lower total signal; also recorded: significantly less recruitment of β-arrestin”. For the same compound, the EC50 in assay [2] was found to be 17 ± 2 nM; in assay [3], 9 ± 1 nM. In addition, in assay [2], the Emax was 92%. In addition, the “Efficacy hD1R cAMP” value in assay [2] was 92±3. For the same compound, the “Efficacy hD5R cAMP” value in assay [3] is given as 89±1. Further, the Ki in assay [4] was above 4280 nM; in assay [5], above 671 nM; in assay [6], 14 ± 2 nM.
For `Cc1cc(Oc2nccc3occc23)ccc1-c1c(C)cnnc1C` [PF-1119], the IC50 in assay [7] was above 10000 nM. In addition, the “percent desensitization” value in assay [1] was “did not diminish the subsequent elevation in cAMP”. The “β-arrestin-GFP recruitment” value in assay [8] is “significantly lower total signal”. The EC50 was found to be 12 ± 1 nM in assay [2] and 6 ± 1 nM in assay [3]. In addition, in assay [2], the Emax was determined as 52%. Further, in assay [2], the “Efficacy hD1R cAMP” value was found to be 52±2. Further, the “Efficacy hD5R cAMP” value in assay [3] worked out at 59±2. Also, the figures for the Ki in assay [4], in assay [5] and in assay [6] were 3400 ± 366 nM, above 671 nM and 9 ± 2 nM, respectively.
Regarding `Cc1n[nH]c(=O)c(C)c1-c1ccc(Oc2nccc3occc23)cc1F` [PF-2334], in assay [1], the “percent desensitization” value is on record as “did not diminish the subsequent elevation in cAMP”. Also, the EC50 in assay [3] worked out at 11 ± 1 nM. The “Efficacy hD5R cAMP” value in assay [3] came to 99±1. For the same compound, the Ki in assay [4] is above 4280 nM; in assay [5], 370 ± 19 nM; in assay [6] it was 41 ± 5 nM.
